Results on three molecules are retold here after paper PMC8175240, “Integrase-derived peptides together with CD24-targeted lentiviral particles inhibit the growth of CD24 expressing cancer cells” (Oncogene, 2021).

Each structure is given as a SMILES string. ≈ marks a conversion by molar mass, not a printed value. Residues, ends and D or L forms follow the SMILES beside them.

One data set deals with CHO-WBL cells. In words: Chromosomal aberration assay (genotoxicity). The format is cell-based, Chinese hamster. Particulars: CP 2.5, +S9, 3 h treatment, harvest 22 h. As to the method: All cells were cultured for 22 h after initiation of INS treatment.
A short description of data set [1]: Solubility of IN-derived peptides in PBS. The format is physicochemical. Conditions: for Solubility: at 0 min, verified at 60 min, LC-MS. On the procedure:
(§1) Analytic HPLC-MS was performed using an Agilent 1260 series Liquid Chromatography/Mass Selective Detector (MSD) equipped with an electrospray interface and a UV diode array detector. Analyses were performed on an ACE C8, 50 × 3.0 mm, 3 µm column, with an isocratic 0.1% formic acid/ACN eluent, at a rate of 1 ml/min over a period of 5 min. UV absorption was measured at 280 nm, 220 nm, and 215–395 nm. MS analysis was performed with ESI (electron spray ionization) with a positive ionization method.
(§2) Four reaction systems were prepared; INS and INR2 in human plasma, INS and INR2 in rat plasma (Supplementary Table 2). Freshly prepared 10 mg/ml stock solution of the peptides was injected into plasma or PBS solution (1:1). The mixture was diluted with methanol to precipitate the plasma proteins. The samples were filtered through PTFE 0.45 µm filters and run in LC-MS. Samples were taken at the following times: 0, 15, 30, 60, 120, 240, and 480 min and after 24 h.
(§3) Plasma solubility was determined at 0 min and was verified at 60 min (if no degradation was observed).

The nature of data set [2]: Solubility of IN-derived peptides in rat plasma. The data set is classed as physicochemical. Conditions: LC-MS. On the procedure:
as §1, §2, §3

A short description of data set [3]: Solubility of IN-derived peptides in human plasma. The data set is classed as physicochemical. Particulars: LC-MS. As to the method:
as §1, §2, §3

The nature of data set [4]: Stability test in human plasma. The format is in vitro ADME. Conditions: for Analyte Remaining % / Concentration calculated from LC-MS data: human plasma, 10 mg/ml stock into plasma 1:1, LC-MS; for Concentration calculated from LC-MS data: methanol precipitation, 0.45 µm filtration. On the procedure: as §1, §2
Data set [5] is described as follows: Stability test in rat plasma. The format is in vitro ADME. Particulars: for Analyte Remaining %: 10 mg/ml stock into plasma 1:1, LC-MS; for Concentration calculated from LC-MS data: 10 mg/ml stock into plasma 1:1, methanol precipitation, 0.45 µm filtration. On the procedure:
as §1, §2

Data set [6] relates to H1975 lung cancer cells. In words: Cytotoxicity of peptides without lentiviral particles, MTT. The format is cell-based, human. Conditions: peptide alone, three times over ten days. On the procedure: H1975 lung cancer cells were treated three times over the course of 10 days (on days 2, 4, and 7) with different concentrations of the tested peptides. Following ten days of incubation, cells were analyzed for potential toxicity using a quantitative cell viability test, the MTT assay.

The next data set has as its system H1975 cells. As to the kind of experiment: Cell survival after CD24-targeted lentivirus plus peptide, MTT. The data set is classed as cell-based, human. Conditions: Raltegravir added to LV-CD24 plus INS or INR2. As to the method:
(§4) The cell-killing effect of the system was measured by the MTT3-(4,5-dimethylthiazol-2-yl)-2,5-diphenyltetrazoliumenzymatic assay or by 2-(4-iodophenyl)-3-(4-nitrophenyl)-5-(2,4-disulfophenyl)-2H-tetrazolium (WST-1) assay. Two thousand cultured cells were seeded onto 96-well plates (in culture media, DMEM, or RPMI). After 24 h, different concentrations of the diverse peptides (and inhibitors) were added for 3 h. Thirty MOI of the targeted lentiviral particles were added to the cells and the plates centrifuged for 90 min at 800×g, 20 °C. Three and six days later, this procedure (peptides/inhibitor and LV treatments) was repeated. On the tenth day, cell viability was analyzed either by MTT or by WST-1; the media was replaced by fresh media (100 μl per well) containing 1 mg/ml MTT, and the cells were incubated for 2–4 more hours. MTT-formazan crystals were dissolved by the addition of extraction solution (0.1 N HCl in absolute isopropanol). Absorbance at 570 nm and a reference wavelength of 690 nm was recorded on an automated microplate reader. For WST-1, media was replaced and WST-1 was added directly to the culture wells followed by incubation of 10–60 min at 37 °C. Plates were read by an automated microplate reader by measuring the absorbance of the dye with a wavelength of 450 nm and a reference wavelength of 630 nm.

For a further data set, the system named is Panc-1 cells. As to the kind of experiment: Cell survival after CD24-targeted lentivirus plus peptide, WST-1. Particulars: Raltegravir added to LV-CD24 plus INS or INR2. The data set is classed as cell-based, human. On the procedure: as §4
Data set [7] relates to H1975 lung cancer cells. As to the kind of experiment: Microscopic observation of GFP incorporation. The format is cell-based, human. Particulars: 30 MOI LV-CD24 and 25 µM INS with 50 µM Raltegravir; 24 h post-treatment. On the procedure:
Fig. 2 The effect of IN-derived peptides on cell survival. A Schematic illustration of the treatment protocol. B Microscopic observation of the GFP incorporation inhibition by Raltegravir. H1975 lung cancer cells were exposed to 30 MOI LV-CD24 and 25 µM INS with or without the addition of 50 µM Raltegravir. Images were taken 24 h post-treatment. C 2000 Panc-1 (left) and H1975 (right) cells were seeded in 96-well plates and were treated with the different items as described. Cell survival was measured by the enzymatic WST-1 (left) and MTT assays (right). % Survival was calculated as the percentage of living cells remaining after treatment with respect to non-treated cells.

The subject of data set [8] is CD24 expressing cancer cells. The format is cell-based, human. Conditions: abstract.
[9] abbreviates: from 5 mg/mL sample (10 mg/ml stock into plasma 1:1), at 0 min, verified at 60 min, methanol precipitation, PTFE 0.45 µm filtration.

`O=P1(N(CCCl)CCCl)NCCCO1` (stereo not shown) [CP, cyclophosphamide monohydrate, reference compound]: in the data set on CHO-WBL cells, the “% Gaps” value was found to be 4.0%, the “% Structural aberration without gaps” value is reported as 47.0%, the “Cells with endoreduplication (%)” value turned out to be 3.0% and the “Cells with polyploidy (%)” value is reported as 0.0%. Moreover, in the data set on CHO-WBL cells (cell growth inhibition relative to negative control), the “Cytotoxicity (%)” value came out at 50%. Moreover, the “% Structural aberrant cells” value in the data set on CHO-WBL cells (cells with only gaps not included, *p ≤ 0.05 Fisher's Exact test) is 35.0* %.

For `CC(C)[C@H](NC(=O)[C@@H](NC(=O)[C@@H](NC(=O)[C@H](CO)NC(=O)[C@@H](NC(=O)[C@H](Cc1ccccc1)NC(=O)[C@H](CC(N)=O)NC(=O)[C@H](CO)NC(=O)CNC(=O)[C@@H](N)Cc1c[nH]c2ccccc12)[C@@H](C)O)[C@@H](C)O)[C@@H](C)O)C(=O)N[C@@H](CCCCN)C(=O)N[C@@H](C)C(=O)O` [INR] (H-WGSNFTSTTVKA-OH), the Solubility in [1] (% of 5 mg/mL sample) was 66.2%; in data set [1] (from 5 mg/mL sample (10 mg/ml stock into PBS 1:1), methanol dilution, PTFE 0.45 µm filtration), 3.31 mg/mL (≈ 2550 µM); in data set [2] (% of 5 mg/mL sample), 42.6%; in [2] (setting [9]), 2.13 mg/mL (≈ 1640 µM); in data set [3] (% of 5 mg/mL sample), 44.2%; in [3] (setting [9]), 2.21 mg/mL (≈ 1700 µM). Also, the “Solubility (in words)” value in data set [1] (rat and human plasma) is listed as “highly soluble”. In addition, the “Stability” value was found to be 40% in data set [4] (both types of sera (rat and human plasma), for the entire 24 h); 40% in data set [4] (rat and human plasma, ~4 h incubation). For the same molecule, the “Analyte Remaining %” value in [4] (0 h) stood at 40.9%; in data set [4] (0.25 h), 40.3%; in data set [4] (0.5 h), 45.3%; in data set [4] (1 h), 47.3%; in [4] (2 h) it was 39.2%; in data set [4] (4 h) it was 41.2%. Also, the “Analyte Remaining %” value is 38.3% in [4] (8 h); 38.9% in [4] (24 h); 41.8% in [5] (0 h); 51.1% in data set [5] (0.25 h); 34.3% in data set [5] (0.5 h); 43.5% in data set [5] (1 h). For the same molecule, the “Analyte Remaining %” value was determined as 43.6% in data set [5] (2 h), 38.2% in data set [5] (4 h), 35.3% in [5] (8 h) and 36.9% in data set [5] (24 h). For the same molecule, the “Concentration calculated from LC-MS data” value in data set [4] (0 h) is 2050 µg/mL; in data set [4] (0.25 h), 2020 µg/mL; in [4] (0.5 h), 2270 µg/mL; in data set [4] (1 h), 2370 µg/mL; in data set [4] (2 h), 1960 µg/mL; in [4] (4 h), 2060 µg/mL. The “Concentration calculated from LC-MS data” value in [4] (8 h) is 1910 µg/mL; in data set [4] (24 h), 1950 µg/mL; in data set [5] (0 h), 2090 µg/mL; in data set [5] (0.25 h), 2560 µg/mL; in data set [5] (0.5 h), 1710 µg/mL; in [5] (1 h) it was 2170 µg/mL. For the same molecule, the “Concentration calculated from LC-MS data” value in [5] (2 h) is 2180 µg/mL; in data set [5] (4 h) it was 1910 µg/mL; in data set [5] (8 h), 1760 µg/mL; in data set [5] (24 h), 1840 µg/mL. Besides, the “Effect on lung cancer cell viability” value in the data set on H1975 lung cancer cells [6] is recorded as “no effect”.

Turning to `Cc1nnc(C(=O)NC(C)(C)c2nc(C(=O)NCc3ccc(F)cc3)c(O)c(=O)n2C)o1` [Raltegravir], the “Effect on cell death induced by LV plus peptide” value in the data set on H1975 cells and with Panc-1 cells was “successfully suppressed the observed cell death” each time. Besides, the “Effect on GFP fluorescence of INS-treated cells” value in the data set on H1975 lung cancer cells [7] is on record as “nearly eliminated”. Moreover, the “Effect on induction of apoptosis” value in [8] is reported as “inhibited the induction of apoptosis”.
